# Tests used:
# SASP effectors = assay: Genome-wide expression microarray of SASP effectors in PSC27 cells; assay type: cell-based, human; settings: bleomycin in combination with 5Z-7 vs bleomycin alone
# Description: FIG. 34. After simultaneous treatment of PSC27 cells with bleomycin and/or 5Z-7, SB203580 (SB) and RAD001, total RNA was analyzed by microarray for expression-spectrum.
# c. Experimental Treatment In Vitro • 100 nM docetaxel (DTX), 100 nM paclitaxel (PTX), 200 nM vincristine (VCR), 50 μg/ml bleomycin (BLEO), 1 μM mitoxantrone (MIT), or 10 Gy ^137CS ionizating radiation (γ-radiation at 743 rad/min, RAD) was added to the culture medium when PSC27 cells grown to 80% (PSC27-Pre) to produce cell damage. After drug treatment for 6 hours, the cells were simply washed by PBS for 3 times and kept in the culture medium for 7 to 10 days, followed by subsequent experiments. 2. Plasmid Preparation and Lentiviral Transfection • Full-length human IKKα and Flag were cloned as a fusion protein between the restriction sites BamHI and XbaI in the expression vector pCR3.1. Full-length human mTOR and GST were cloned as a fusion protein between a pair of NotI restriction sites in the expression vector pcDNA3. […] FV1000 laser scanning confocal microscopy (Olympus) was used to obtain cellular confocal fluorescence images to determine the extent of DNA damage. • Antibody anti-TAK1 used for histological IHC staining in clinical prostate, non-small cell lung cancer patients and breast cancer patients, was purchased from Proteintech, idib. […]
# [1] = tested on: PC3/PSC27 xenograft tumors; assay: Time-extended preclinical treatment, survival of PC3/PSC27 tumor-bearing mice; assay type: in vivo
# Description: In the preclinical chemotherapy trial, mice subcutaneously transplanted with tumors were fed standard experimental diet. After 2 weeks, the chemotherapeutics mitoxantrone (dose of 0.2 mg/kg) and/or SASP inhibitors (500 μl, dose of 10 mg/kg, RAD001, SB203580 and 5Z-7 were purchased from Tocris; LYTAK, purchased from Lilly Co ((Indianapolis, Ind.), 5 mg/kg) were administrated intraperitoneally. The timepoint was the first day of Week 3, 5, 7, and the whole course of treatment was composed of three cycles of administration, each cycle lasted for 2 weeks. After the course of treatment, mouse […] was collected for tumor measurement and histological analysis. Each mouse received cumulatively 0.6 mg mitoxantrone/kg body weight and 30 mg SASP inhibitor/kg body (15 mg/kg body weight for LYTAK1). […]
# Although there was no ectopic metastasis of cancer cells, the current inventor questions whether the microenvironment causes other pathological consequences other than tumor growth and drug resistance. To this end, the present inventor evaluated the survival of multiple groups of animals under a batch of time-extended preclinical treatment conditions to determine the objective results of tumor progression. All animals were monitored for tumor volume and recognized as severe disease when the tumor volume reached a certain upper limit (size 2000 mm^3).
# PSC27 cells = assay: DNA damage response foci, colony formation, cell cycle arrest and SA-β-Gal in PSC27 cells; assay type: cell-based, human
# Description: Experimental Treatment In Vitro • 100 nM docetaxel (DTX), 100 nM paclitaxel (PTX), 200 nM vincristine (VCR), 50 μg/ml bleomycin (BLEO), 1 μM mitoxantrone (MIT), or 10 Gy ^137CS ionizating radiation (γ-radiation at 743 rad/min, RAD) was added to the culture medium when PSC27 cells grown to 80% (PSC27-Pre) to produce cell damage. After drug treatment for 6 hours, the cells were simply washed by PBS for 3 times and kept in the culture medium for 7 to 10 days, followed by subsequent experiments. […] Immunofluorescence and Histochemical Analysis • Mouse monoclonal antibody anti-phospho-Histone H2A.X (Ser139) (clone JBW301, Millipore) or mouse monoclonal antibody anti-Phosphor-53BP1 (Cat #sc-135748, Santa Cruz), and secondary antibody Alexa Fluor® 488 (or 594)-conjugated F(ab′)2 were added sequentially to slides on which cells were fixed. Nuclei were counterstained with 2 μg/ml of 4′,6-diamidino-2-phenylindole (DAPI). The most representative image was selected from the 3 observation fields for data analysis and result presentation. FV1000 laser scanning confocal microscopy (Olympus) was used to obtain cellular confocal fluorescence images to determine the extent of DNA damage. • Antibody anti-TAK1 used for histological IHC staining in clinical prostate, non-small cell lung cancer patients and breast cancer patients, was purchased from Proteintech, idib.
compound,measurement,setting,value
"COc1cc(O)c2c(c1)/C=C/C[C@H](O)[C@H](O)C(=O)/C=C\C[C@H](C)OC2=O [5Z-7, 5z-7-oxozeaenol]",expression of SASP effectors,SASP effectors,significantly inhibited
same,survival of mice,[1]; 5Z-7 alone,only slightly prolonged
same,prolongation of disease-free survival,"[1]; MIT/5Z-7 combination vs mitoxantrone alone, severe disease at tumor size 2000 mm^3",about 50%
same,colony forming ability of PSC27 cells,"PSC27 cells; bleomycin and/or 5Z-7, Day 7",not associated with the inhibition of TAK1 activity
same,single-cell level of DDR foci,"PSC27 cells; bleomycin-treated cells, presence or absence of inhibitor",did not change significantly
